Data published in patent US20260035367A1 (Celgene Corporation, priority 2021, published 2026).
Where two headings read alike, the source gives them in different places.

Columns and labels:
[1] = target: T1, Recombinant human PKC-theta (His-tagged 362-706) (Homo sapiens, UniProt Q04759); assay: PKC-theta inhibition assay (HTRF KinEASE kit); assay type: biochemical; conditions: ATP 6.5 μM, STK substrate 525 nM
T1 construct: Recombinant human PKC-theta (His-tagged 362-706); His
Method: PKC-theta and PKC-delta biochemical activities were measured using the PKC-theta HTRF KinEASEkit kit, according to manufacturer's instructions (Cisbio, catalogue number 61ST1PEJ). Briefly, the kinase buffer component of the kit was supplemented with 10 mM MgCl2, 1 mM DTT and 0.1% Tween 20. […] The streptavidin_XL665 and STK antibody-cryptate detection reagents were mixed according to the manufacturer's instructions. Test compounds were diluted in DMSO in a series of 10 semi-log step doses; 10 nL of each compound dose were dispensed in 384 well plates. […] The reaction was started by addition of the substrate and ATP and incubated at 25° C. for 30 minutes or 20 minutes for the PKC-theta and PKC-delta assays, respectively. The detection reagents were added, and the plate was incubated in the dark for 2 hours. […] The ratio of acceptor and donor emission signals was calculated for each well. Percent inhibition values were calculated from the HTRF ratios at different doses and fitted to a 4-parameter logistic curve to determine IC50 values (see Table 2).

[2] = target: T2, Recombinant human PKC-delta (His-tagged 345-676) (Homo sapiens, UniProt Q05655); assay: PKC-delta inhibition assay (HTRF KinEASE kit); assay type: biochemical; conditions: ratio, PKC-theta vs PKC-delta HTRF; for PKC-theta/PKC-delta selectivity (binned): binned A to G
T2 construct: PKC-delta (His-tagged 345-676); His
T2 sequence (Q05655 345-676): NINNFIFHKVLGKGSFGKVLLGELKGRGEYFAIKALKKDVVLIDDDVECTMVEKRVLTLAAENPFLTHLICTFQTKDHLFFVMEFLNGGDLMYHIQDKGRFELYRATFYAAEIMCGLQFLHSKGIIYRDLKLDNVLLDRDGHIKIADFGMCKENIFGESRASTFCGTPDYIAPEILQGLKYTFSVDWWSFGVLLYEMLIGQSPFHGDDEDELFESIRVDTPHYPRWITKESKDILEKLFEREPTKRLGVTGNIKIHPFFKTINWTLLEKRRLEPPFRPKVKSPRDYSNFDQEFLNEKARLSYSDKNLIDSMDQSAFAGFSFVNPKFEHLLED

[3] = test system: IL-2 secretion by human effector memory T cells (TEM); assay: Effector memory T cells IL-2 release assay (CD3/CD28 stimulation, HTRF IL-2 detection); assay type: cell-based; conditions: Homo sapiens, T-cell, 24 h
Method: Test compound-mediated inhibition of NFκB signalling in T cells was assessed by quantification of the IL-2 secretion by human effector memory T cells (TEM) upon treatment and stimulation. Human TEM cells were isolated from buffy coats of healthy donors obtained from the French blood bank.
Finally, 10 doses of test compound, originally prepared in DMSO by serial semi-log step dilution, were also added to cells in triplicate wells. Final DMSO concentration in wells was 0.1% in a total volume of 100 μL complete medium. Plates were incubated for 24 h at 37° C. in 5% CO2 atmosphere. After incubation, cell suspensions were centrifuged at 400×g and culture supernatants were recovered and stored at −80° C. […] IL-2 levels were determined in cell supernatants using an HTRF human IL-2 detection kit (Cisbio, cat #62HIL02PEH).

[4] = binned A to H, read-out: PKC-theta HTRF pIC50 (binned) (converted)
[5] = read-out: PKC-theta HTRF pIC50 (converted)
[6] = binned A to G, read-out: PKC-theta IL2 pIC50 (binned) (converted)
[7] = read-out: PKC-theta IL2 pIC50 (converted)

T1 sequence (Q04759 362-706): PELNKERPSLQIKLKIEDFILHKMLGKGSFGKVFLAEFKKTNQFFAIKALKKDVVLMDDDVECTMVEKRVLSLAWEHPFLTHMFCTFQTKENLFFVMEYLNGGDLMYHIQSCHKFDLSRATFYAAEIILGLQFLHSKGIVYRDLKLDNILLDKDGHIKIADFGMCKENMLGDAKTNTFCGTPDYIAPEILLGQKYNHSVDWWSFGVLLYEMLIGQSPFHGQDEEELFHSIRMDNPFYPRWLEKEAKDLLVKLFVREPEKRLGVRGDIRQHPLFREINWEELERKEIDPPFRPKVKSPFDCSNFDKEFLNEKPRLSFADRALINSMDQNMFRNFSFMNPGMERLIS

Row | SMILES | IC50 [1, 4] | IC50 [1, 5] | PKC-theta/PKC-delta selectivity [2] | PKC-theta/PKC-delta selectivity (binned) [2] | IC50 [3, 6] | IC50 [3, 7]
1 | C[C@@]1(O)C(=O)Nc2nccc(-c3cc(C(F)(F)F)cc(N4CCNC(C(F)F)C4)n3)c21 (single isomer, unassigned) [Example 123] | 10 to 31.6 nM | 20 nM | 25 | C (a ratio of between 20 and 30) | > 1000 nM | 1580 nM
2 | COC1(C)C(=O)Nc2nccc(-c3cc(C(F)(F)F)cc(N4CCN[C@@H](C)C4)n3)c21 (some centres unmarked) [Example 112] | 10 to 31.6 nM | 15.8 nM | 20 | C (a ratio of between 20 and 30) | 100 to 316 nM | 251 nM
3 | C[C@@H]1CN(c2cc(C(F)(F)F)cc(-c3ccnc4c3[C@](C)(O)C(=O)N4)n2)[C@H](C)CN1 (single isomer, unassigned) [Example 119] | 3.16 to 10 nM | 3.98 nM | 12 | D (a ratio of between 10 and 20) | 100 to 316 nM | 200 nM
4 | CC1C(=O)Nc2nccc(-c3cccc(CN(C)C)c3)c21 (centres unmarked) [Example 22] | 316 to 1000 nM | 501 nM | 1 | F (a ratio of between 1 and 5) | > 1000 nM | 1580 nM
5 | CC1(F)CNCCN(c2cc(Cl)cc(-c3ccnc4c3[C@](C)(O)C(=O)N4)n2)C1 (single isomer, unassigned) [Example 92] | 3.16 to 10 nM | 7.94 nM | 6 | E (a ratio of between 5 and 10) | 100 to 316 nM | 200 nM
6 | CC(c1cccc(-c2ccnc3[nH]c(=O)[nH]c23)c1)N(C)C (centres unmarked) [Example 1] | 316 to 1000 nM | 501 nM | 1 | F (a ratio of between 1 and 5) | > 1000 nM | 10000 nM
7 | CC[C@@H]1CN(c2cc(C(F)(F)F)cc(-c3ccnc4c3C(C)(O)C(=O)N4)n2)CCN1 (some centres unmarked) [Example 72] | 10 to 31.6 nM | 25.1 nM | 12 | D (a ratio of between 10 and 20) | 100 to 316 nM | 316 nM
8 | CC1(C)C(=O)Nc2nccc(-c3cccc(N4CCNCC4)n3)c21 [Example 38] | 3.16 to 10 nM | 10 nM | 4 | F (a ratio of between 1 and 5) | 100 to 316 nM | 158 nM
9 | CC[C@H]1CN(c2cc(C(F)(F)F)cc(-c3ccnc4c3[C@](C)(O)C(=O)N4)n2)CCN1 (single isomer, unassigned) [Example 90] | 0.316 to 1 nM | 0.794 nM | 17 | D (a ratio of between 10 and 20) | 10 to 31.6 nM | 15.8 nM
10 | C[C@@]1(O)C(=O)Nc2nccc(-c3cc(Cl)cc(N4CCNC(CC(F)(F)F)C4)n3)c21 (single isomer, unassigned) [Example 122] | 3.16 to 10 nM | 3.98 nM | 16 | D (a ratio of between 10 and 20) | 100 to 316 nM | 251 nM
11 | C[C@@]1(O)C(=O)Nc2nccc(-c3cc(F)cc(N4CCNCC4)c3)c21 (single isomer, unassigned) [Example 63] | 316 to 1000 nM | 1000 nM | – | G (a ratio of 0 to 1) | > 1000 nM | 10000 nM
12 | CC[C@]1(C)C(=O)Nc2nccc(-c3cc(Cl)cc(N4CCNC[C@H]4C)n3)c21 (single isomer, unassigned) [Example 165] | 3.16 to 10 nM | 6.31 nM | 12 | D (a ratio of between 10 and 20) | 31.6 to 100 nM | 63.1 nM
13 | C[C@@H]1CNC[C@@H](C)N1c1cc(C(F)(F)F)cc(-c2ccnc3c2C(C)(C)C(=O)N3)n1 [Example 180] | 1 to 3.16 nM | 2 nM | 28 | C (a ratio of between 20 and 30) | 316 to 1000 nM | 631 nM
14 | CCC1(C)C(=O)Nc2ncc(F)c(-c3cc(C(F)(F)F)cc(N4CCNC[C@H]4C)n3)c21 (some centres unmarked) [Example 157] | 3.16 to 10 nM | 7.94 nM | 20 | C (a ratio of between 20 and 30) | 100 to 316 nM | 158 nM
15 | CC[C@]1(C)C(=O)Nc2nccc(-c3cc(C(C)(F)F)cc(N4CCNC[C@H]4C)n3)c21 (single isomer, unassigned) [Example 201] | 0.316 to 1 nM | 0.501 nM | 18 | D (a ratio of between 10 and 20) | 3.16 to 10 nM | 7.94 nM
16 | CC[C@H]1CN(c2ccc(Cl)c(-c3ccnc4c3C(O)(CC)C(=O)N4)n2)CCN1 (some centres unmarked) [Example 132] | 100 to 316 nM | 100 nM | 4 | F (a ratio of between 1 and 5) | 316 to 1000 nM | 1000 nM
17 | CC1(C)C(=O)Nc2nccc(-c3cc(OC(F)F)cc(N4CCNCC4)n3)c21 [Example 86] | 31.6 to 100 nM | 31.6 nM | 10 | E (a ratio of between 5 and 10) | 316 to 1000 nM | 501 nM
18 | CC1(C)C(=O)Nc2nccc(-c3cccc(N4CCNC(Cc5cccnc5)C4)c3)c21 (centres unmarked) [Example 67] | 31.6 to 100 nM | 50.1 nM | 3 | F (a ratio of between 1 and 5) | > 1000 nM | 1000 nM
19 | CC1(C)C(=O)Nc2ncc(Br)c(-c3cc(F)cc(N4CCNCC4)c3)c21 [Example 69] | 31.6 to 100 nM | 39.8 nM | 1 | F (a ratio of between 1 and 5) | 316 to 1000 nM | 398 nM
20 | CC1C(=O)Nc2ncnc(-c3cccc(N4CCNCC4)c3)c21 (centres unmarked) [Example 24] | 316 to 1000 nM | 1000 nM | 1 | F (a ratio of between 1 and 5) | > 1000 nM | 2000 nM
21 | CN1CCN(c2cccc(-c3ccnc4[nH]c(=O)[nH]c34)c2)CC1 [Example 17] | > 1000 nM | 5010 nM | 2 | F (a ratio of between 1 and 5) | > 1000 nM | 10000 nM
